Laboratory results from patent publication US20250263644A1, “COMPOSITIONS COMPRISING YEAST CELLS AND POLYPHENOLS AND THEIR USE” (INSTITUT NATIONAL D'ETUDES SUPERIEURES AGRONOMIQUES DE …, priority 2015, published 2025).

Tests used:
yeast cells [1] = assay: Evaluation of the reversibility of polyphenol adsorption; assay type: binding, Saccharomyces cerevisiae; conditions: pellets re-suspended in model wine without polyphenols, 24 h; FIG. 7b
Description: The yeast pellets obtained by centrifugation after adsorption above were re-suspended in 2 ml of a model wine without polyphenols. Samples were stirred for 24 h and the supernatants recovered. The adsorption reversibility was evaluated through the quantity of polyphenols recovered in supernatants.

yeast cells [2] = assay: Adsorption isotherms: polyphenols adsorbed by yeast; assay type: binding, Saccharomyces cerevisiae; conditions: 24 h contact in model wine, 10^8 cells/mL, A280 of supernatant; FIG. 7a
Description: A contact time of 24 h was chosen for adsorption experiments. A stock solution of polyphenols with a molecular weight below 620 Da was prepared by dissolving catechin powder in a model wine at a concentration of 10 g/L. A stock solution of polyphenols with a molecular weight above 620 Da was prepared by dissolving grape skin tannins with a DPm of 20 in a model wine at a concentration of 10 g/L
Dilutions of both stock solutions were performed to get a final concentration range between 0.01 and 5 g/L. All sorption experiments were carried out by mixing equal volumes of a 2×g·L^−1 polyphenol solution (x being the final desired polyphenol concentration) and of a 2·10^8 cells/mL suspension (final concentration 10^8 cells/mL). Samples (2 ml) were placed in a 2 mL tightly closed Eppendorf in order to minimize headspace and were stirred continuously (Stuart rotator SB3, 40 rpm) in absence of light and at room temperature. […] The total polyphenol concentrations in the bulk were determined by absorbency measurements at 280 nm after adequate dilution. Total encapsulated polyphenol with a molecular weight below 620 Da and total encapsulated polyphenols with a molecular weight above 620 Da were calculated from the difference in absorbency between the samples and the corresponding controls using: […]

Q: Which results are given for catechin?
A: reversibility of interactions between yeast and adsorbed polyphenols (yeast cells [1]): fully reversible; amounts of polyphenols adsorbed by yeast, compared with DPm 20 (yeast cells [2]): about 10 times lower
